# Experimental data published in patent publication US10597388B2, “Pyridazinone herbicides” (FMC CORPORATION, priority 2014, dated 2020).
# How the values were obtained:
# Format in all cases: in vivo
# [1] = tested on: galium (catchweed bedstraw, Galium aparine); assay: Test A greenhouse herbicide test, postemergence; settings: for Galium plant response rating: 0 to 100 scale, 0 is no effect, 100 is complete control
# Description: (§1) At the same time, plants selected from these crop and weed species and also blackgrass (Alopecurus myosuroides), and galium (catchweed bedstraw, Galium aparine) were planted in pots containing the same blend of loam soil and sand and treated with postemergence applications of test chemicals formulated in the same manner. Plants ranged in height from 2 to 10 cm and were in the one- to two-leaf stage for the postemergence treatment. Treated plants and untreated controls were maintained in a greenhouse for approximately 10 d, after which time all treated plants were compared to untreated controls and visually evaluated for injury. Plant response ratings, summarized in Table A, are based on a 0 to 100 scale where 0 is no effect and 100 is complete control. A dash (-) response means no test result.
# [2] = tested on: blackgrass (Alopecurus myosuroides); assay: Test A greenhouse herbicide test, postemergence; settings: for Blackgrass plant response rating: 0 to 100 scale, 0 is no effect, 100 is complete control
# Description: as §1
# [3] = tested on: pigweed (Amaranthus retroflexus); assay: Test A greenhouse herbicide test, pre- and postemergence
# Description: (§2) Seeds of plant species selected from barnyardgrass (Echinochloa crus-galli), kochia (Kochia scoparia), ragweed (common ragweed, Ambrosia elatior), ryegrass, Italian (Italian ryegrass, Lolium multiflorum), crabgrass, large (large crabgrass, Digitaria sanguinalis), foxtail, giant (giant foxtail, Setaria faberii), momingglory (Ipomoea spp.), pigweed (Amaranthus retroflexus), velvetleaf (Abutilon theophrasti), wheat (Triticum aestivum), and corn (Zea mays) were planted into a blend of loam soil and sand and treated preemergence with a directed soil spray using test chemicals formulated in a non-phytotoxic solvent mixture which included a surfactant.
# as §1
# kochia (Kochia scoparia) = assay: as above
# Description: as §2, §1
# [4] = tested on: ragweed (common ragweed, Ambrosia elatior); assay: as above
# Description: as §2, §1
# [5] = tested on: foxtail, giant (giant foxtail, Setaria faberii); assay: as above
# Description: as §2, §1
# [6] = tested on: ryegrass, Italian (Italian ryegrass, Lolium multiflorum); assay: as above
# Description: as §2, §1
# [7] = tested on: barnyardgrass (Echinochloa crus-galli); assay: as above
# Description: as §2, §1
# [8] = tested on: wheat (Triticum aestivum); assay: as above; settings: Postemergence; for Wheat plant response rating: 0 to 100 scale, 0 is no effect, 100 is complete control
# Description: as §2, §1
# corn (Zea mays) = assay: as above; settings: Postemergence; for Corn plant response rating: 0 to 100 scale, 0 is no effect, 100 is complete control
# Description: as §2, §1
# [9] = 125 g ai/ha, visual rating after approx. 10 d, 0 to 100 scale (0 no effect, 100 complete control)
# [10] = Postemergence, 125 g ai/ha, visual rating after approx. 10 d, 0 to 100 scale (0 no effect, 100 complete control)
# [11] = Postemergence, 500 g ai/ha, 0 to 100 scale, 0 is no effect, 100 is complete control
# [12] = Preemergence, 125 g ai/ha, 0 to 100 scale where 0 is no effect and 100 is complete control
# [13] = Preemergence, 500 g ai/ha, 0 to 100 scale, 0 no effect, 100 complete control
# [14] = Postemergence, 125 g ai/ha, 0 to 100 scale where 0 is no effect and 100 is complete control
# [15] = 125 g ai/ha, 0 to 100 scale where 0 is no effect and 100 is complete control
# [16] = Preemergence, 500 g ai/ha, 0 to 100 scale where 0 is no effect and 100 is complete control
# [17] = 500 g ai/ha, visual rating after approx. 10 d, 0 to 100 scale (0 no effect, 100 complete control)
# [18] = Postemergence, 500 g ai/ha, visual rating after approx. 10 d, 0 to 100 scale (0 no effect, 100 complete control)
structure (smiles),measurement,setting,value
CCc1ccc2ccccc2c1-c1c(OC(=O)C2CC2)c(C)nn(C)c1=O [Compound 38],"Plant response rating, Galium",[1]; [9],80
same,Galium plant response rating,[1]; 500 g ai/ha,100
same,"Plant response rating, Blackgrass",[2]; [9],50
same,Blackgrass plant response rating,[2]; 500 g ai/ha,60
same,"Plant response rating, Pigweed",[3]; [10],50
same,Pigweed plant response rating,[3]; [11],50
same,Pigweed plant response rating,[3]; [12],0
same,"Plant response rating, Pigweed",[3]; [13],80
same,"Plant response rating, Kochia",kochia (Kochia scoparia); [10],30
same,Kochia plant response rating,kochia (Kochia scoparia); [11],80
same,Kochia plant response rating,kochia (Kochia scoparia); [12],40
same,"Plant response rating, Kochia",kochia (Kochia scoparia); [13],40
same,"Plant response rating, Ragweed",[4]; [10],40
same,Ragweed plant response rating,[4]; [11],70
same,Ragweed plant response rating,[4]; [12],0
same,"Plant response rating, Ragweed",[4]; [13],70
same,"Plant response rating, Foxtail, Giant",[5]; [10],0
same,"Foxtail, Giant plant response rating",[5]; [11],50
same,"Foxtail, Giant plant response rating",[5]; [12],0
same,"Plant response rating, Foxtail, Giant",[5]; [13],40
same,"Plant response rating, Ryegrass, Italian",[6]; [14],0
same,"Ryegrass, Italian plant response rating",[6]; [11],50
same,"Ryegrass, Italian plant response rating",[6]; [12],40
same,"Plant response rating, Ryegrass, Italian",[6]; [13],70
same,"Plant response rating, Barnyardgrass",[7]; [10],0
same,Barnyardgrass plant response rating,[7]; [11],40
same,Barnyardgrass plant response rating,[7]; [12],0
same,"Plant response rating, Barnyardgrass",[7]; [13],10
same,"Plant response rating, Wheat",[8]; [15],10
same,Wheat plant response rating,[8]; 500 g ai/ha,20
same,"Plant response rating, Corn",corn (Zea mays); [9],0
same,Corn plant response rating,corn (Zea mays); 500 g ai/ha,10
CCc1nn(C)c(=O)c(-c2c(C)oc3ccc(Cl)cc23)c1O [Compound 77],"Plant response rating, Galium",[1]; [15],20
same,Galium plant response rating,[1]; 500 g ai/ha,60
same,"Plant response rating, Blackgrass",[2]; [15],0
same,Blackgrass plant response rating,[2]; 500 g ai/ha,0
same,"Plant response rating, Pigweed",[3]; [14],0
same,Pigweed plant response rating,[3]; [11],0
same,Pigweed plant response rating,[3]; [12],0
same,"Plant response rating, Pigweed",[3]; [16],0
same,"Plant response rating, Kochia",kochia (Kochia scoparia); [14],0
same,Kochia plant response rating,kochia (Kochia scoparia); [11],10
same,Kochia plant response rating,kochia (Kochia scoparia); [12],0
same,"Plant response rating, Kochia",kochia (Kochia scoparia); [16],0
same,"Plant response rating, Ragweed",[4]; [14],0
same,Ragweed plant response rating,[4]; [11],0
same,Ragweed plant response rating,[4]; [12],0
same,"Plant response rating, Ragweed",[4]; [16],0
same,"Plant response rating, Foxtail, Giant",[5]; [14],0
same,"Foxtail, Giant plant response rating",[5]; [11],0
same,"Foxtail, Giant plant response rating",[5]; [12],0
same,"Plant response rating, Foxtail, Giant",[5]; [16],10
same,"Plant response rating, Ryegrass, Italian",[6]; [14],20
same,"Ryegrass, Italian plant response rating",[6]; [11],60
same,"Ryegrass, Italian plant response rating",[6]; [12],10
same,"Plant response rating, Ryegrass, Italian",[6]; [16],40
same,"Plant response rating, Barnyardgrass",[7]; [14],0
same,Barnyardgrass plant response rating,[7]; [11],0
same,Barnyardgrass plant response rating,[7]; [12],0
same,"Plant response rating, Barnyardgrass",[7]; [13],10
same,"Plant response rating, Wheat",[8]; [15],0
same,Wheat plant response rating,[8]; 500 g ai/ha,0
same,"Plant response rating, Corn",corn (Zea mays); [15],0
same,Corn plant response rating,corn (Zea mays); 500 g ai/ha,0
CCc1nn(CC)c(=O)c(-c2c(C)oc3ccc(C)cc23)c1O [Compound 64],"Plant response rating, Galium",[1]; [15],0
same,Galium plant response rating,[1]; 500 g ai/ha,0
same,"Plant response rating, Blackgrass",[2]; [15],0
same,Blackgrass plant response rating,[2]; 500 g ai/ha,0
same,"Plant response rating, Pigweed",[3]; [14],0
same,Pigweed plant response rating,[3]; [11],0
same,Pigweed plant response rating,[3]; [12],0
same,"Plant response rating, Pigweed",[3]; [13],0
same,"Plant response rating, Kochia",kochia (Kochia scoparia); [14],0
same,Kochia plant response rating,kochia (Kochia scoparia); [11],0
same,Kochia plant response rating,kochia (Kochia scoparia); [12],0
same,"Plant response rating, Kochia",kochia (Kochia scoparia); [13],0
same,"Plant response rating, Ragweed",[4]; [14],0
same,Ragweed plant response rating,[4]; [11],0
same,Ragweed plant response rating,[4]; [12],0
same,"Plant response rating, Ragweed",[4]; [13],0
same,"Plant response rating, Foxtail, Giant",[5]; [14],0
same,"Foxtail, Giant plant response rating",[5]; [11],0
same,"Foxtail, Giant plant response rating",[5]; [12],0
same,"Plant response rating, Foxtail, Giant",[5]; [13],0
same,"Plant response rating, Ryegrass, Italian",[6]; [14],0
same,"Ryegrass, Italian plant response rating",[6]; [11],0
same,"Ryegrass, Italian plant response rating",[6]; [12],0
same,"Plant response rating, Ryegrass, Italian",[6]; [13],0
same,"Plant response rating, Barnyardgrass",[7]; [14],0
same,Barnyardgrass plant response rating,[7]; [11],0
same,Barnyardgrass plant response rating,[7]; [12],0
same,"Plant response rating, Barnyardgrass",[7]; [13],0
same,"Plant response rating, Wheat",[8]; [15],0
same,Wheat plant response rating,[8]; 500 g ai/ha,0
same,"Plant response rating, Corn",corn (Zea mays); [15],0
same,Corn plant response rating,corn (Zea mays); 500 g ai/ha,0
Cc1ccc2ccccc2c1-c1c(OS(C)(=O)=O)cnn(C)c1=O [Compound 142],"Plant response rating, Galium",[1]; [15],70
same,"Plant response rating, Galium",[1]; [17],80
same,"Plant response rating, Blackgrass",[2]; [15],10
same,"Plant response rating, Blackgrass",[2]; [17],20
same,"Plant response rating, Pigweed",[3]; [14],20
same,"Plant response rating, Pigweed",[3]; [18],50
same,Pigweed plant response rating,[3]; [12],60
same,"Plant response rating, Pigweed",[3]; [16],50
same,"Plant response rating, Kochia",kochia (Kochia scoparia); [14],0
same,"Plant response rating, Kochia",kochia (Kochia scoparia); [18],20
same,Kochia plant response rating,kochia (Kochia scoparia); [12],0
same,"Plant response rating, Kochia",kochia (Kochia scoparia); [16],0
same,"Plant response rating, Ragweed",[4]; [14],0
same,"Plant response rating, Ragweed",[4]; [18],20
same,"Plant response rating, Ragweed",[4]; [16],40
same,"Plant response rating, Foxtail, Giant",[5]; [14],10
same,"Plant response rating, Foxtail, Giant",[5]; [18],20
same,"Foxtail, Giant plant response rating",[5]; [12],10
same,"Plant response rating, Foxtail, Giant",[5]; [16],60
same,"Plant response rating, Ryegrass, Italian",[6]; [14],80
same,"Plant response rating, Ryegrass, Italian",[6]; [18],90
same,"Plant response rating, Ryegrass, Italian",[6]; [16],80
same,"Plant response rating, Barnyardgrass",[7]; [14],10
same,"Plant response rating, Barnyardgrass",[7]; [18],20
same,Barnyardgrass plant response rating,[7]; [12],10
same,"Plant response rating, Barnyardgrass",[7]; [16],70
same,"Plant response rating, Wheat",[8]; [15],0
same,"Plant response rating, Wheat",[8]; [17],0
same,"Plant response rating, Corn",corn (Zea mays); [15],0
same,"Plant response rating, Corn",corn (Zea mays); [17],0
